This experiment concerns the target Myeloperoxidase (MPO) (Homo sapiens, UniProt P05164). Description: taurine chloramine chlorination assay. Format: biochemical.

Where a name gives a salt, the structure may show the parent alone.

Chain of Myeloperoxidase (MPO) (P05164 165-273): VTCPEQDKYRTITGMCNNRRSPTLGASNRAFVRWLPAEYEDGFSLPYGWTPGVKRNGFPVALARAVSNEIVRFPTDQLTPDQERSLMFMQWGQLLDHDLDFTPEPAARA
Chain of Myeloperoxidase (MPO) (P05164 279-745): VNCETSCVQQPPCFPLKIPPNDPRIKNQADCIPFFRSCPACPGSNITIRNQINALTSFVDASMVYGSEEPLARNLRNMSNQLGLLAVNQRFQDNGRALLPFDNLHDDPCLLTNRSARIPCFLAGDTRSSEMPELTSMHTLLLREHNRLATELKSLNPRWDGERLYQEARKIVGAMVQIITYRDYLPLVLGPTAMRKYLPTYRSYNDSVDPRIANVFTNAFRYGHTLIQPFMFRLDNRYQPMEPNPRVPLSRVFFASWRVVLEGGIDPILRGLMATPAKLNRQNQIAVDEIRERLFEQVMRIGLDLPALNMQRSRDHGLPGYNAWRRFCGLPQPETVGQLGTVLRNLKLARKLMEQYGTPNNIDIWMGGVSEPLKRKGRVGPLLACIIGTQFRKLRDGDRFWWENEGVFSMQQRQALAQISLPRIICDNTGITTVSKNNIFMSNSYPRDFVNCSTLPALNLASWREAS

`O=S(=O)(O)CCS` [mesna, 2-mercaptoethanesulfonic acid sodium salt] yielded an IC50 of approximately 5 µM.

By IC50 is commonly meant the concentration at which inhibition is half-maximal. High values mean weaker potency in that assay, low ones greater potency in that assay.

The values above are taken from PMC6859649 (Free radical biology & medicine, 2017).
